We go through one compound from publication PMC6505380, “An Extensively Humanized Mouse Model to Predict Pathways of Drug Disposition and Drug/Drug Interactions, and to Facilitate Design of Clinical Trials” (Drug Metabolism and Disposition, 2019).

The nature of data set [1]: Pharmacokinetics of S-acenocoumarol in 8HUM and CypC4KO mice: effect of sulfaphenazole. The class given is in vivo, mouse. Conditions: S-acenocoumarol 1 mg/kg oral. On the procedure:
Mice were administered two daily doses of SJW before receiving a single oral dose of S-acenocoumarol (1 mg/kg). S-acenocoumarol was dissolved in dimethyl sulfoxide (1 mg/ml) and diluted 10-fold in 100 mM potassium phosphate buffer (pH8) or in a solution of sulfaphenazole (9.78 mg/ml) in the same buffer. Compounds were administered to mice at a volume of 10 ml/kg. Blood collection and sample preparation was performed as described above and analytical details are provided in Supplemental Data.
Fig. 6. […] (A) In vitro microsomal stability assay. […] Values show are mean ± S.D.

Another data set concerns the target CYP2C9 (Homo sapiens, UniProt P11712). The arrangement: pooled rifampicin-treated male and female 8HUM mice (8HUM) or pooled human liver microsomes (HLM); host or cells: liver microsomes: pooled human liver; liver of 8HUM mice carrying human CYP2C9 driven by the albumin promoter. Conditions: man; ref Thijssen et al., 2001; cited from earlier work.
Data set [2] can be described thus: Microsomal stability of S-acenocoumarol. Particulars: 1 μM, 2 mg protein/ml.
Description: The reaction mixture aliquots were taken at specified time points and mixed with an equal volume of acetonitrile containing warfarin (50 ng/ml) as an internal standard. […] The concentrations of S-acenocoumarol were measured by LC-MS/MS. Chromatographic separation was performed on a Kinetex C18 100 Å column (2.6 μm; 5.0 × 2.1 mm) (Phenomenex) using an injection volume of 10 μl and a run time of 7 minutes. The detector used was a Micromass Quattro Micro mass spectrometer (Waters Corporation) run in electrospray positive ion mode.
Details of data set [3]: method as in Thijssen et al., 2001; unit not given beside the values. Conditions: man; ref Thijssen et al., 2001; cited from earlier work.

Chain of CYP2C9 (P11712 whole entry): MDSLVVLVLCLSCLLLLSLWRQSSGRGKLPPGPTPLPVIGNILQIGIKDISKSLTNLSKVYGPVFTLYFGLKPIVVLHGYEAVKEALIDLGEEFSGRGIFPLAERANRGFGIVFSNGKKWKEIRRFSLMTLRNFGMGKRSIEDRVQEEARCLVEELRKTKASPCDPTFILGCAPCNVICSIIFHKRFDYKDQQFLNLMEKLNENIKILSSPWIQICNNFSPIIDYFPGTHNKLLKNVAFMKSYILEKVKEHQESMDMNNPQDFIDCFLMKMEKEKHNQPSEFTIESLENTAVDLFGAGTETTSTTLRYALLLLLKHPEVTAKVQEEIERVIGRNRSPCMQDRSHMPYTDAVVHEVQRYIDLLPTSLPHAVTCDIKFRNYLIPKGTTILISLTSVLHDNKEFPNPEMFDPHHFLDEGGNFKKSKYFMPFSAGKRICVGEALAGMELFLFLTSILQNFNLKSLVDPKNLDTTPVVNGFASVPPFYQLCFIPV

Take `CC(=O)C[C@@H](c1ccc([N+](=O)[O-])cc1)c1c(O)c2ccccc2oc1=O` [S-acenocoumarol]: the AUC in data set [1] (SJW-pretreated 8HUM mice, coadministered sulfaphenazole) is 2008 ± 159 ng·h/mL; in data set [1] (SJW-pretreated 8HUM mice, vehicle-treated), 230 ± 30 ng·h/mL; in data set [1] (SJW-pretreated CypC4KO mice), 2520 ± 214 ng·h/mL. Moreover, the “fraction metabolized by CYP2C9” value at CYP2C9 is 0.94. Further, the “Metabolism in liver microsomes” value is reported as “rapidly metabolized” in data set [2] (liver microsomes from CYP2C9 humanized mice) and “practically indistinguishable from that in the no cofactor control” in data set [2] (microsomes from wild-type, Cyp2cKO, Cyp2c/2d/3a KO, or hepatic P450 reductase-null mice). Moreover, the “AUCR in CYP2C9 extensive versus poor metabolizers” value in data set [3] is on record as 16.3.
